# In patent US20130296393A1, “METHOD FOR CONTROLLING CLUBROOT” (ISHIHARA SANGYO KAISHA, LTD., priority 2011, published 2013):
# Columns and labels:
# Assay type in all cases: in vivo
# Plasmodiophora brassicae [1] = assay: Cabbage clubroot control test, pot test (Example 1 / Comparative Example 1); parameters: key to Disease control value: {1−(treatment severity/control severity)}×100; key to Disease severity: Σ(plants×index 0-4)/(plants×4)×100; 0 = no clubroot; details: for Disease control value / Disease severity: 60 days after settled planting
# Procedure: A chemical solution for spraying at 50 ppm was prepared by diluting 9.4% w/w cyazofamid (Ranman [trade name] flowable, manufactured by Ishihara Sangyo Kaisha Ltd.) with water.
# A spore suspension of Plasmodiophora brassicae (fungus density: 1×10^5 fungi/g dry soil) was inoculated into a sterilization soil adjusted to pH of 6.2 with Sandoseto and after introducing the resulting test soil into a 1/5000 a pot, a cabbage (variety: Okina) seedling grown in a cell seedling tray (128 cells/seedling box) was settled-planted by establishing five plantings for each test section having a size of 0.02 m^2 per one plant. Just after the settled planting, 3 days, 7 days, 10 days and 14 days after the settled planting, the chemical solution for spraying prepared in (1) was applied by soil drench at a ratio of 250 ml/plant. Sixty days after the settled planting, the number of each index of clubroot adhesion to the root was investigated. For comparison, the same test was carried out on a control section where a soil drench treatment with the chemical solution for spraying was not applied.
# The test was carried out by the same method as in Example 1(2) except that in place of the soil drench treatment with the chemical solution for spraying, 30 kg/10 a of 0.3% flusulfamide (dust formulation of Nebijin [trade name], manufactured by Mitsui Chemicals Agro, Inc.) was applied to the test soil just before settled planting and incorporated into the soil by means of a small mixer (interfusion depth: 15 cm).
# In Example 1 and Comparative Example 1, the adhesion of clubroot was investigated by pulling out the root of cabbage. The adhesion of clubroot was investigated by calculating the disease severity using the following formula. In addition, the weight of cabbage in the aerial part was measured. Furthermore, the test result was shown by the average value of five plantings.
# (§1) Disease severity={Σ(number of each index of diseased plants×disease index)/(number of plants surveyed×4)}×100
# (§2) Disease control value={1−(treatment disease severity/control disease severity)}×100
# (§3) 0: No adhesion of clubroot, 1: clubroot adhesion to lateral root, 2: clubroot adhesion to the entire lateral root or clubroot adhesion to a part of tap root, 3: adhesion of large clubroot to tap root, and 4: clubroot adhesion to the entire tap root.
# Plasmodiophora brassicae [2] = assay: Cabbage clubroot control test, farm field (Example 2 / Comparative Example 2); parameters: key to Disease control value: control value = {1 − (treated severity/control severity)}×100; key to Disease severity: severity = Σ(plants×index 0–4)/(plants surveyed×4)×100; details: for Disease control value / Disease severity: 77 days after settled planting
# Excerpt: as §1, §2, §3
# A spore suspension of Plasmodiophora brassicae was sprayed on the entire farm field by using a watering pot to have a fungus density of 1×10^4 fungi/g dry soil. In this farm field, a cabbage (variety: Okina) seedling grown in a cell seedling tray (128 cells/seedling box) was settled-planted by establishing two plantings for each test section containing ten plants (interplant distance: 30 cm, interrow space: 30 cm, planting in two rows). Just after the settled planting, 4 days, 7 days and 11 days after settled planting, the chemical solution for spraying prepared by the same method as in Example 1(1) was drenched into the soil in a ratio of 250 ml/plant. Seventy-seven days after the settled planting, the number of each index of clubroot adhesion to the root was investigated. For comparison, the same test was carried out on a control section where a soil drench treatment with the chemical solution for spraying was not applied.
# The test was carried out by the same method as in Example 2 except that in place of the soil drench treatment with the chemical solution for spraying, a chemical solution for spraying prepared by the same method as in Example 1(1) was sprayed on a cabbage (variety: Okina) seedling grown in a cell seedling tray (128 cells/seedling box) at a concentration of 2 liters/cell seedling tray by using a watering pot and these seedlings were settled-planted.
# (§4) The disease severity and disease control value of Example 2 and Comparative Example 2 were determined by the same methods as in Example 1 and Comparative Example 1. In addition, the weight of cabbage in the aerial part was measured. Furthermore, the test result was shown by the average value of two plantings.
# Plasmodiophora brassicae [3] = assay: Cabbage clubroot control test, pot test, cyazofamid vs chlorothalonil (Example 3 / Comparative Example 3); parameters: key to Disease control value: control value = (1 − treated/control severity) × 100; key to Disease severity: severity = Σ(plants × index 0-4)/(plants × 4) × 100; details: for Disease control value / Disease severity: 57 days after settled planting
# Excerpt: as §1, §2, §3
# A spore suspension of Plasmodiophora brassicae (fungus density: 1×10^5 fungi/g dry soil) was inoculated into a sterilization soil adjusted to pH of 6.0 with Sandoseto and after introducing the resulting test soil into a 1/5000 a pot, a cabbage (variety: Okina) seedling grown in a cell seedling tray (128 cells/seedling box) was settled-planted by establishing five plantings for each test section having a size of 0.02 m^2 for one plant. Immediately, 4 days, 7 days and 14 days after settled planting, the chemical solution for spraying prepared by the same method as in Example 1(1) was drenched into the soil in a ratio of 250 ml/plant. Fifty-seven days after the settled planting, the number of each index of clubroot adhesion to the root was investigated. For comparison, the same test was carried out on a control section where a soil drench treatment with the chemical solution for spraying was not applied.
# A chemical solution for spraying in a concentration of 800 ppm was prepared by diluting 40% chlorothalonil (Daconil 1000 [trade name], manufactured by SDS K.K.) with water.
# The test was carried out by the same procedure as in Example 3 except that the chemical solution (cyazofamid) for spraying was replaced by the chemical solution (chlorothalonil) for spraying prepared in Comparative Example 3(1).
# as §4, with “3” for “2”, “five” for “two”
# [4] = 50 ppm soil drench 250 ml/plant 3 days after settled planting
# [5] = 50 ppm soil drench 250 ml/plant 7 days after settled planting
# [6] = 50 ppm soil drench 250 ml/plant 10 days after settled planting
# [7] = 50 ppm soil drench 250 ml/plant 14 days after settled planting
# [8] = 50 ppm soil drench 250 ml/plant just after settled planting
# [9] = 50 ppm soil drench 250 ml/plant 4 days after settled planting
# [10] = 50 ppm soil drench 250 ml/plant 11 days after settled planting
# [11] = 50 ppm solution sprayed on seedlings in cell tray, 2 liters/cell seedling tray, just before settled planting
compound,measurement,setting,value
"Cc1ccc(-c2c(Cl)nc(C#N)n2S(=O)(=O)N(C)C)cc1 [cyazofamid, 4-chloro-2-cyano-1-dimethylsulfamoyl-5-(4-methylphenyl)imidazole]",Weight in the aerial part,Plasmodiophora brassicae [1]; [4],156 g
same,Disease control value,Plasmodiophora brassicae [1]; [4],75
same,Disease severity,Plasmodiophora brassicae [1]; [4],20
same,Weight in the aerial part,Plasmodiophora brassicae [1]; [5],168 g
same,Disease control value,Plasmodiophora brassicae [1]; [5],69
same,Disease severity,Plasmodiophora brassicae [1]; [5],25
same,Weight in the aerial part,Plasmodiophora brassicae [1]; [6],164 g
same,Disease control value,Plasmodiophora brassicae [1]; [6],50
same,Disease severity,Plasmodiophora brassicae [1]; [6],40
same,Weight in the aerial part,Plasmodiophora brassicae [1]; [7],163 g
same,Disease control value,Plasmodiophora brassicae [1]; [7],31
same,Disease severity,Plasmodiophora brassicae [1]; [7],55
same,Weight in the aerial part,Plasmodiophora brassicae [1]; [8],164 g
same,Disease control value,Plasmodiophora brassicae [1]; [8],81
same,Disease severity,Plasmodiophora brassicae [1]; [8],15
same,Weight in the aerial part,Plasmodiophora brassicae [2]; [9],666 g
same,Disease control value,Plasmodiophora brassicae [2]; [9],87
same,Disease severity,Plasmodiophora brassicae [2]; [9],7
same,Weight in the aerial part,Plasmodiophora brassicae [2]; [5],579 g
same,Disease control value,Plasmodiophora brassicae [2]; [5],30
same,Disease severity,Plasmodiophora brassicae [2]; [5],38
same,Weight in the aerial part,Plasmodiophora brassicae [2]; [10],563 g
same,Disease control value,Plasmodiophora brassicae [2]; [10],11
same,Disease severity,Plasmodiophora brassicae [2]; [10],48
same,Weight in the aerial part,Plasmodiophora brassicae [2]; [8],713 g
same,Disease control value,Plasmodiophora brassicae [2]; [8],44
same,Disease severity,Plasmodiophora brassicae [2]; [8],30
same,Weight in the aerial part,Plasmodiophora brassicae [2]; [11],745 g
same,Disease control value,Plasmodiophora brassicae [2]; [11],44
same,Disease severity,Plasmodiophora brassicae [2]; [11],30
same,Weight in the aerial part,Plasmodiophora brassicae [3]; [9],109 g
same,Disease control value,Plasmodiophora brassicae [3]; [9],81
same,Disease severity,Plasmodiophora brassicae [3]; [9],15
same,Weight in the aerial part,Plasmodiophora brassicae [3]; [5],109 g
same,Disease control value,Plasmodiophora brassicae [3]; [5],88
same,Disease severity,Plasmodiophora brassicae [3]; [5],10
same,Weight in the aerial part,Plasmodiophora brassicae [3]; [7],91 g
same,Disease control value,Plasmodiophora brassicae [3]; [7],0
same,Disease severity,Plasmodiophora brassicae [3]; [7],80
same,Weight in the aerial part,Plasmodiophora brassicae [3]; [8],104 g
same,Disease control value,Plasmodiophora brassicae [3]; [8],100
same,Disease severity,Plasmodiophora brassicae [3]; [8],0
same,Control effect,"Plasmodiophora brassicae [3]; 50 ppm soil drench, treatment within 7 days after settled planting",a control effect which was sufficient for practical use was obtained
